Assay [1] concerns the target T1, 5-hydroxytryptamine receptor 1A (Homo sapiens, UniProt P08908).
T1 sequence (P08908 whole entry): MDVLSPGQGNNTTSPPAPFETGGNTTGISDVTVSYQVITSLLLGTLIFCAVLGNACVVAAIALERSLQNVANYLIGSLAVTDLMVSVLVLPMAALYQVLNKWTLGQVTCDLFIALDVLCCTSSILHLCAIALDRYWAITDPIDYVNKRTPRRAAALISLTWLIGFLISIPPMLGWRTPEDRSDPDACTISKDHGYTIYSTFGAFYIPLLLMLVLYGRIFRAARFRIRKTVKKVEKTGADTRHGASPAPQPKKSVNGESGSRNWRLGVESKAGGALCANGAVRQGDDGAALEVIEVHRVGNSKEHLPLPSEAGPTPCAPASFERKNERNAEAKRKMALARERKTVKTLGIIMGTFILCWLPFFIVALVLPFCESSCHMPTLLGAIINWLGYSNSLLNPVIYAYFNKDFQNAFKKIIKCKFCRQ
The experiment in a line: [3H]8-OH-DPAT Binding Assay. The conditions noted are these: pH 7.4; 27 °C. Here is the method:
For the binding assay, aliquots of receptor membranes, 0.25 nM [3H]8-OH-DPAT (8-hydroxy-2-(di-N-propylamino)tetralin, 154.3 Ci/mM; New England Nuclear, Boston, MA) and appropriate concentrations of test compounds were added to 0.25 mL of 50 mM Tris-HCl (pH 7.4) buffer containing 10 mM MgSO4, 0.5 mM ethylenediaminetetraacetic acid (EDTA), and 0.1% ascorbic acid. Incubations were carried out for 60 min at 27 °C, and these were terminated by rapid filtration using a MicroBeta FilterMate-96 harvester (PerkinElmer) through a Filtermat A glass fiber filter presoaked in 0.3% polyethylenimine (PEI). The filter was washed with ice-cold 50 mM Tris-HCl buffer solution (pH 7.4), and was then covered with MeltiLex, sealed in a sample bag, and dried in an oven.

In assay [2] the target is 5-hydroxytryptamine receptor 7 (Homo sapiens, UniProt P34969). Put plainly: [3H] LSD Binding Assay. Conditions: pH 7.4; 27 °C. The method, then: (§1) For receptor binding assays, human 5-HT6 and 5-HT7 serotonin receptors expressed in CHO-K1 cells (PerkinElmer) were used. For 5-HT6 receptor binding, frozen membrane, 1 nM [3H]LSD (lysergic acid diethylamide; PerkinElmer), and appropriate concentrations of test compounds were added to 0.25 mL of 50 mM Tris-HCl (pH 7.4) buffer containing 0.1% ascorbic acid and 4 mM CaCl2. Nonspecific binding was determined using 10 μM methiothepin. The incubations were performed for 60 min at 27 °C, and these were terminated by rapid filtration through a Filtermat A glassfiber filter presoaked in 0.5% PEI. For the 5-HT7 receptor binding assay, cell membrane, 3 nM [3H]LSD, and appropriate concentrations of test compounds were added to 0.25 mL of 50 mM Tris-HCl (pH 7.4) buffer containing 10 mM MgSO4 and 0.5 mM EDTA. The mixture was incubated for 120 min at 27 °C, and the reaction was terminated by rapid filtration through a Filtermat A glass fiber filter presoaked in 0.3% PEI. Nonspecific binding was determined using 10 μM methiothepin.

In assay [3] the target is 5-hydroxytryptamine receptor 6 (Homo sapiens, UniProt P50406). The experiment in a line: [3H] LSD Binding Assay. Conditions: pH 7.4; 27 °C. Here is the method:
as §1

Assay [4] concerns the target T2, 5-hydroxytryptamine receptor 2C (Homo sapiens, UniProt P28335).
T2 sequence (P28335 whole entry): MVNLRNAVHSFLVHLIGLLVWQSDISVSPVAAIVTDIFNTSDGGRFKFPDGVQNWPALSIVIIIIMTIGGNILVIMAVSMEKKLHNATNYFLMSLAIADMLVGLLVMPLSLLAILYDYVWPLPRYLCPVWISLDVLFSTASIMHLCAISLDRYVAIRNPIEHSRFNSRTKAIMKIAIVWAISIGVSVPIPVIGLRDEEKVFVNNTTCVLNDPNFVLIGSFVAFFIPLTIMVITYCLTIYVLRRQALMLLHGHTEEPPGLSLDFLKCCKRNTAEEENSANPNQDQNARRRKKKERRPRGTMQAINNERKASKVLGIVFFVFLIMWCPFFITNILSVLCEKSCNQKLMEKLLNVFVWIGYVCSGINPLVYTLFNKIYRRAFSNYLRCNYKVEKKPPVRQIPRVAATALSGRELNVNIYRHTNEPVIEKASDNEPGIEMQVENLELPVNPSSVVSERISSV
The experiment in a line: [3H]Mesulergine Binding Assay. Conditions: pH 7.4. Here is the method:
(§2) Frozen membranes from a stable CHO-K1 cell line expressing the human recombinant 5-HT2C receptor (PerkinElmer) were used. For the binding assay, [3H]mesulergine (1 nM; Amersham Biosciences, Buckinghamshire, UK), receptor membrane, and test compounds were added into 50 mM Tris-HCl (pH 7.4) buffer containing 0.1% ascorbic acid and 4 mM CaCl2. Nonspecific binding was determined using 100 μM mianserin. The incubations were performed for 60 min at 27°C, and these were terminated by rapid filtration through a Filtermat A glass fiber filter presoaked in 0.5% PEI.

For assay [5], the target named is 5-hydroxytryptamine receptor 2A (Homo sapiens, UniProt P28223). Put plainly: [3H]Ketanserin Binding Assay. Conditions: pH 7.4. The method, then:
For serotonin 5-HT2A binding, an aliquot of frozen membrane from a CHO-K1 cell line expressing the human recombinant 5-HT2A receptor (PerkinElmer) and [3H]ketanserin (1 nM; PerkinElmer) were used in the presence of mianserin (20 μM) as nonspecific. The reaction mixture was incubated for 60 min at 27°C using 50 mM Tris-HCl (pH 7.4) buffer containin 4 mM CaCl2 and 0.1% ascorbic acid, and harvested through a Filtermat A glass fiber filter presoaked in 0.5% PEI.

Assay [6] deals with T3, 5-hydroxytryptamine receptor 2C (Homo sapiens, UniProt P28335).
T3 sequence (P28335 whole entry): T2 sequence (P28335 whole entry) with S23C
The experiment in a line: [3H]Mesulergine Binding Assay. The conditions noted are these: pH 7.4. Here is the method: as §2
The source holds these as a separate data set.

Consider seven molecules from BindingDB's records for doi:10.3109/14756360902932784 (Ewha Womans University, 2010).

The structures appear in SMILES notation. Substitutions are numbered along the chain they refer to.

The term IC50 denotes the concentration that gives 50% inhibition. A high value points to weaker potency in that assay.

5-hydroxytryptamine receptor 6, sequence (P50406 whole entry): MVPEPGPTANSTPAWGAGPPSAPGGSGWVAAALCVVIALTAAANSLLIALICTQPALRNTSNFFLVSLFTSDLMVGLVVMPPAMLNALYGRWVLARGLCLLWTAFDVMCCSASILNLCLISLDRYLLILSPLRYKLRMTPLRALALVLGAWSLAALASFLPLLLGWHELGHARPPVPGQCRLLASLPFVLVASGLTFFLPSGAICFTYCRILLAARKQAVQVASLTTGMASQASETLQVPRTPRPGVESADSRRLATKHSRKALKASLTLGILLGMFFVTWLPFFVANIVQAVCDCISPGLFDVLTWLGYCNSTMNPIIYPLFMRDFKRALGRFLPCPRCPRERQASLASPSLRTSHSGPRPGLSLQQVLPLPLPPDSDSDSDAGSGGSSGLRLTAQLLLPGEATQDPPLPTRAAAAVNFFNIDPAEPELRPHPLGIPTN
5-hydroxytryptamine receptor 2A, sequence (P28223 whole entry): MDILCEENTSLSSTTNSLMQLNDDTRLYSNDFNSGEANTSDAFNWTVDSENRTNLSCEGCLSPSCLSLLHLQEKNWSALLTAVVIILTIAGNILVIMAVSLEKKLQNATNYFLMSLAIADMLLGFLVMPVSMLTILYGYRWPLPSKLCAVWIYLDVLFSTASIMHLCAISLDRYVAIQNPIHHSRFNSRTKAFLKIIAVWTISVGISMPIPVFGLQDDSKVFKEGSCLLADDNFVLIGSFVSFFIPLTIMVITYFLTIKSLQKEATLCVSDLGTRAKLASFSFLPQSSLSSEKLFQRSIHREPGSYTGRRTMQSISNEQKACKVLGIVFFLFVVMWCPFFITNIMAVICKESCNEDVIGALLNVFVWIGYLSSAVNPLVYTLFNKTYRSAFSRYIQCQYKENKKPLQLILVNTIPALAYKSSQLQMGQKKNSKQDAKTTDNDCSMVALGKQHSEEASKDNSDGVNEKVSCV
5-hydroxytryptamine receptor 7, sequence (P34969 whole entry): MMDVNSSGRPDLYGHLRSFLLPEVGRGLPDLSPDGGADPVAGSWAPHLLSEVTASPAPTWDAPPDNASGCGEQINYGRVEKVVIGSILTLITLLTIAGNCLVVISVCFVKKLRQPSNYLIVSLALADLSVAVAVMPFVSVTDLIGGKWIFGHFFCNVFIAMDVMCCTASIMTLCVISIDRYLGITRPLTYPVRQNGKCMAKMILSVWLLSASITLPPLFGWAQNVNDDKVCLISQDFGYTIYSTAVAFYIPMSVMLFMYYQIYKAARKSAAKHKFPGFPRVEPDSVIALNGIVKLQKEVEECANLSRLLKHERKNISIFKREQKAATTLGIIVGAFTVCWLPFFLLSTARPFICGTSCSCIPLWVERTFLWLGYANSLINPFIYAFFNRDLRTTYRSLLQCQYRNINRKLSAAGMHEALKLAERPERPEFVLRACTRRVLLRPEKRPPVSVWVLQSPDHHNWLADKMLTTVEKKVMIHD

Take `CCCCCCCCCCNC(=O)/C=C/c1cc(OC)c(OC)c(OC)c1` [(E)-N-Decyl-3-(3,4,5-trimethoxyphenyl) acrylamide (1f)]: the IC50 is 2.1 µM in assay [1]; 6.7 µM in assay [2]; 5.6 µM in assay [3]; 4.5 µM in assay [4]; 6.8 µM in assay [5].
Take `CNC(=O)/C=C/c1cc(OC)c(OC)c(OC)c1` [(E)-N-Methyl-3-(3,4,5-trimethoxyphenyl) acrylamide (1a)]: the IC50 in assay [1] was 5.6 µM; in assay [2], over 10 µM; in assay [3], over 10 µM; in assay [6], over 10 µM; in assay [5], over 10 µM.
In the case of `COc1cc(/C=C/C(=O)O)cc(OC)c1OC` [3,4,5-Trimethoxycinnamic acid (TMCA)], the IC50 in assay [1] was 7.6 µM; in assay [2] it was over 10 µM; in assay [3], over 10 µM; in assay [4] it was 2.5 µM; in assay [5] it was over 10 µM.
For `CCCCCCCCNC(=O)/C=C/c1cc(OC)c(OC)c(OC)c1` [(E)-N-Octyl-3-(3,4,5-trimethoxyphenyl) acrylamide (1e)], the half-maximal inhibitory concentration (IC50) in assay [1] is 1.2 µM; in assay [2], over 10 µM; in assay [3], over 10 µM; in assay [4], 8.8 µM; in assay [5] it was over 10 µM.
On to `CCCCCCNC(=O)/C=C/c1cc(OC)c(OC)c(OC)c1` [(E)-N-Hexyl-3-(3,4,5-trimethoxyphenyl) acrylamide (1d)], for which the IC50 is 3.8 µM in assay [1]; over 10 µM in assay [2]; over 10 µM in assay [3]; over 10 µM in assay [6]; over 10 µM in assay [5].
In the case of `C=CCNC(=O)/C=C/c1cc(OC)c(OC)c(OC)c1` [(E)-N-Allyl-3-(3,4,5-trimethoxyphenyl) acrylamide (1b)], the IC50 was 5.9 µM in assay [1]; over 10 µM in assay [2]; over 10 µM in assay [3]; over 10 µM in assay [6]; over 10 µM in assay [5].
As to `CCCCNC(=O)/C=C/c1cc(OC)c(OC)c(OC)c1` [(E)-N-Butyl-3-(3,4,5-trimethoxyphenyl) acrylamide (1c)], the concentration for half-maximal inhibition (IC50) was 4.9 µM in assay [1]; over 10 µM in assay [2]; over 10 µM in assay [3]; over 10 µM in assay [6]; over 10 µM in assay [5].
